In patent US5279956A, “Activated protein C polypeptides and anti-peptide antibodies, diagnostic methods and systems for inhibiting activated protein C” (The Scripps Research Institute, priority 1991, dated 1994):
No end group written: not given here.

The substances below were run against T1, APC (Homo sapiens, UniProt P04070) (assay: APC anticoagulant activity, APTT and Xa-1-stage coagulation assays (mean or both)). Conditions: 500 μM peptide; mean of APTT and Xa-1-stage assays; 0 = no observable effect ± 10%.
T1 construct: begins at amino acid residue position 158 and ends at 419; The light chain is 155 amino acid residues in length; tissue Factor IX concentrate from Immuno AG, Vienna; thrombin from Enzyme Research Laboratories
T1 sequence (P04070 212-461): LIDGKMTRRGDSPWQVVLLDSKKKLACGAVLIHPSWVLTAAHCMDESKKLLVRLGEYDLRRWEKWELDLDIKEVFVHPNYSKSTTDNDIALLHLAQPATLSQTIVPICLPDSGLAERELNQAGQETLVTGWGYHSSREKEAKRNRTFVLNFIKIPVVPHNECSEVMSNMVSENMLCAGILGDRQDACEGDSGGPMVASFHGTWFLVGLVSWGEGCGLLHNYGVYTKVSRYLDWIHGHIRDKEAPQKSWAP
T1 sequence (P04070 43-197): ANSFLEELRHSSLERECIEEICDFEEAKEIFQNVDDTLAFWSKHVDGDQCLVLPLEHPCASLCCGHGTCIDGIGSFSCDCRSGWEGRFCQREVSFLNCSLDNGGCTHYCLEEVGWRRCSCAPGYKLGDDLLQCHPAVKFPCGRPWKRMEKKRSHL
Format: biochemical
Description: (§1) The effect of the synthetic peptides on APC anticoagulant activity were determined using the APTT assay in the presence of either normal citrate anticoagulated plasma (NHP) or protein S depleted plasma (PSDP). The assays were performed essentially as described. See Marlar et al., Blood, 59:1067-1072 […]; Suzuki et al., J. Biol. Chem., 258:163-168 (1983); Gruber et al., Blood, 73:639-642 (1989); Ohlin et al., Biochem., 29:644-651 (1990). NHP was purchased from George King Bio-Medical, Inc. (Overland Park, Kans.). PSDP was prepared from a normal human citrate-anticoagulated plasma pool from ten healthy donors. Protein S was immunodepleted from the NHP by immunoaffinity chromatography of NHP over an anti-protein S antibody column to form PSDP. The anti-protein S antibody column was prepared by coupling 100 mg of a monoclonal, high-affinity, calcium-independent anti-PS antibody, designated S7, to 30 ml of CNBr-activated Sepharose 4B (Pharmacia) as described in Example 2c1).
For the APTT assay, APC was prepared as described in Example 2c2). […] The concentration of the APC used in the assay was initially optimized with respect to the sensitivity of the assay towards APC-induced prolongation of clotting time compared to clotting time without APC.
(§2) Once the optimal concentration of APC was determined, peptides from Table 2 were then separately admixed for a final concentration of 500 μM with 10 nM APC in 100 μl of TBS-BSA at pH 7.4 to form peptide-APC admixtures. The resulting admixtures were maintained for seven minutes at 37° C. Separate aliquots of peptides maintained under the same conditions in the absence of APC served as controls for the inhibitory effect of synthetic peptides on APC anticoagulant activity. After the maintenance period, 100 μl of NHP and 100 μl APTT-reagent Thrombosil (Ortho Diagnostics, Raritan, N.J.) were admixed into each peptide admixture and maintained for 200 seconds at 37° C. to form a pre-coagulation admixture. In some experiments, PSDP was used in the place of NHP to determine the effect of Protein S on the assay system. Coagulation was then initiated by the admixture of 100 μl of 30 mM CaCl2 in TBS prewarmed to 37° C. to each of the pre-coagulation admixtures. The time for clot formation was measured by an Electra 700 Automatic Coagulation Timer (Medical Laboratory Automation, Inc., Mount Vernon, N.Y.). Each peptide's effect was determined in duplicate.
The synthetic peptides listed in Table 4 are presented in the same order as listed in Table 2, i.e., are reproduced from Table 2. […] For peptides at a concentration of 500 μM that inhibited at least 50% of APC anticoagulant activity, analysis of dose-response was subsequently conducted. The column in Table 4 labeled "Inhibition of APC" represents the inhibition of APC anticoagulant activity measured with 500 μM peptide.
For testing the inhibition of the synthetic peptides on APC activity described above, Xa-1-stage coagulation assays were also performed as described. See Seegers et al., Thrombosis Res., 13:233-243 (1978); Marlar et al., supra; and Walker et al., J. Biol. Chem. 265:1484-1489 (1990).
“AGILGDRQDA-NH2 [peptide-(346-355), AGILGDRQDA]” showed an inhibition at 500 µM of 0%. DESKKLLVRLGEYDL [peptide-(214-230)] was tested, and the “Inhibition of APC (%)” value was 0%. Work on “DIKEVFVHPNYSKST-NH2 [(239-253), DIKEVFVHPNYSKST]” yielded an inhibition at 500 µM of 20%. With “DRQDASEGDSGGPMV-NH2 [peptide-(351-365), DRQDA -SEGDSGGPMV]” the inhibition at 500 µM was 0%. For “DTEDQEDQVDPRLID-NH2 [peptide-(158-172), DTEDQEDQVDPRLID]”, the inhibition at 500 µM was 0%. Substance “ELDLDIKEVFVHPNY-NH2 [peptide-(235-249), ELDLDIKEVFVHPNY]” has an inhibition at 500 µM of 0%. For “EVMSNMVSENMLSAG-NH2 [peptide-(333-347), EVMSNMVSENML -SAG]”, the inhibition at 500 µM was 0%. In the case of “GEYDLRRWEKWELDL-NH2 [peptide-(224-238), GEYDLRRWEKWELDL]”, the inhibition at 500 µM is reported as 0%. In the case of “GHIRDKEAPQKSWAP-NH2 [peptide-(405-419), GHIRDKEAPQKSWAP]”, the inhibition at 500 µM is reported as 0%. In the case of GTWFLVLVSWGEGC [peptide-(370-384)], the “Inhibition of APC (%)” value is reported as 0%. “HIWDLYRSVKTYVGY-NH2 [peptide-(404-390), HIWDLYRSVKTYVGY]” showed an inhibition at 500 µM of 0%. In the case of “HPSWVLTAAHSMDES-NH2 [peptide-(202-216), HPSWVLTAAH -SMDES]”, the inhibition at 500 µM is reported as 0%. For “HSSREKEAKRNRTFV-NH2 [peptide-(303-317), HSSREKEAKRNRTFV]”, the inhibition at 500 µM was 0%. In the case of “IVPISLPDSGLAERE-NH2 [peptide-(273-287), IVPI -SLPDSGLAERE]”, the inhibition at 500 µM is reported as 0%. Work on “LDSKKKLASGAVLIH-NH2 [peptide-(188-202), LDSKKKLA -SGAVLIH]” yielded an inhibition at 500 µM of 0%. Substance “LIDGKMTRRGDSPWQ-NH2 [peptide-(170-184), LIDGKMTRRGDSPWQ]” has an inhibition at 500 µM of 0%. In the case of “LLHLAQPATLSQTIV-NH2 [peptide-(260-274), LLHLAQPATLSQTIV]”, the inhibition at 500 µM is reported as 0%. Work on “LPDSGLAERELNQAG-NH2 [peptide-(278-292), LPDSGLAERELNQAG]” yielded an inhibition at 500 µM of 0%. “MSNMVSENMLCAGI-NH2 [peptide-(335-348), MSNMVSENMLCAGI]” gave an inhibition at 500 µM of 0%. In the case of “PATLSQTIVPICLP-NH2 [peptide-(266-279), PATLSQTIVPICLP]”, the inhibition at 500 µM is reported as 0%. With “PATLSQTIVPIGLPD-NH2 [peptide-(266-280) SEQ ID NO 8, PATLSQTIVPI -- GLPD]” the inhibition at 500 µM was 0%. “PATLSQTIVPISLPD-NH2 [peptide-(266-280) SEQ ID NO 7, PATLSQTIVPI -SLPD]” showed an inhibition at 500 µM of 0%. Substance “QDACEGDSGGPMVA-NH2 [peptide-(353-366), QDACEGDSGGPMVA]” has an inhibition at 500 µM of 0%. With “QETLVTGWGYHSSRE-NH2 [peptide-(293-307), QETLVTGWGYHSSRE]” the inhibition at 500 µM was 0%. “RRWEKWELDLDIKEV-NH2 [peptide-(229-243), RRWEKWELDLDIKEV]” was tested, and the inhibition at 500 µM was 0%. In the case of “SKKLLVRLGEYDLRR-NH2 [peptide-(216-230), SKKLLVRLGEYDLRR]”, the inhibition at 500 µM is reported as 0%. SKSTTDNDIALLHLA [peptide-(250-263)] was tested, and the “Inhibition of APC (%)” value was 0%. “TRRGDSPWQVVLLDS-NH2 [(176-190), TRRGDSPWQVVLLDS]” gave an inhibition at 500 µM of 25%. Work on “VLNFIKIPVVPHNEC-NH2 [peptide-(317-331), VLNFIKIPVVPHNEC]” yielded an inhibition at 500 µM of 50%. “VLTAAHCMDESKKL-NH2 [peptide-(206-219), VLTAAHCMDESKKL]” gave an inhibition at 500 µM of 0%. “VSRYLDWIHGHIRDK-NH2 [peptide-(396-410), VSRYLDWIHGHIRDK]” gave an inhibition at 500 µM of 95%.

Same assay, conditions: final peptide concentration at which 50% inhibition of APC activity was observed
Work on “VLNFIKIPVVPHNEC-NH2 [peptide-(317-331), VLNFIKIPVVPHNEC]” yielded an IC50 of 500 µM. “VSRYLDWIHGHIRDK-NH2 [peptide-(396-410), VSRYLDWIHGHIRDK]” showed an IC50 of 70 µM.

Same assay, conditions: final peptide concentration at which 90% inhibition of APC activity was observed; read-out: IC90
In the case of “VSRYLDWIHGHIRDK-NH2 [peptide-(396-410), VSRYLDWIHGHIRDK]”, the IC90 is reported as 300 µM.

Each substance was assayed against T1, APC (assay: Activated partial thromboplastin time (APTT) coagulation assay of APC anticoagulant activity). Conditions: APTT assay in the presence of APC.
Format: biochemical
Description: as §1, with “2c1). Residual total protein S content in the resultant PSDP was less than 0.1% protein S as determined by quantitative immunoblotting, by solid-phase ELISA for total protein S and by electroimmunoassay.” for “2c1).”
For the APTT assay, APC was prepared as described in Example 2c2). The specific anticoagulant activity of APC was determined to be 250 Units/mg. The concentration of the APC used in the assay was initially optimized with respect to the sensitivity of the assay towards APC-induced prolongation of clotting time compared to clotting time without APC.
as §2
Additional assays were performed to compare the specificity of the inhibitory effect of peptide-(390-404) on APC anticoagulant activity. Both APTT and Xa-1-stage assays were performed with peptide-(390-404) and with the same peptide synthesized in the reverse order, peptide-(404-390), at concentrations of the peptides ranging from 0 μM to 40 μM. In APTT assays performed as described above in the presence of NHP, APC was used at a concentration of 2.5 nM. For APTT assays in the presence of PSDP, APC was used at a concentration of 5 nM. […]
Once the optimal concentration of APC was determined, anti-(390-404) was separately admixed ranging in concentration from 0.0 to 240 nM with APC in 200 μl of TBS-BSA and 30 mM CaCl2 at pH 7.4 to form an anti-(390-404)-APC immunoreaction admixture pre-maintenance solution. […]
With “VLNFIKIPVVPHNEC-NH2 [peptide-(317-331), VLNFIKIPVVPHNEC]” the IC50 was 500 µM. For “VSRYLDWIHGHIRDK-NH2 [peptide-(396-410), VSRYLDWIHGHIRDK]”, the IC50 was 70 µM and the IC90 was 300 µM.
